In article PMC11352945, “Anticancer Activity of Benzo[a]phenoxazine Compounds Promoting Lysosomal Dysfunction” (Cells, 2024):
≈ marks a conversion by molar mass, not a printed value.

How the values were obtained:
MCF7 cells [1] = experiment: Intracellular pH evaluation (BCECF-AM, flow cytometry), MCF7; type: cell-based, human; settings: MCF7, 2 × IC50 and 4 × IC50, 48 h
Protocol: Evaluations of the intracellular pHs (pHi) of the RKO and MCF7 cells were performed through a flow cytometry optimized protocol using the pH-sensitive probe BCECF-AM. RKO and MCF7 cells were seeded in 12-well plates at a density of 1 × 10^5 cells/mL. After 24 h, the cells were treated with the compounds C9, A36, and A42 at 2 × IC50 and 4 × IC50 concentrations or 0.1% DMSO (vehicle). As a control, untreated cells were used. Attached and floating cells were collected, washed, and then resuspended in Hank’s balanced salt solution (HBSS) after a 48 h treatment period. After that, the cells were stained with 1 μM of BCECF-AM for 30 min at 37 °C. The samples were analyzed by flow cytometry. The FITC-A and PE-A channels were used to detect the fluorescence mean of BCECF-AM.
To further support LMP’s role in cell death induction, we investigated the effects of the compounds on intracellular pH (pHi), as LMP induction is associated with an increase in cytosolic proton levels and, as a result, a reduction in intracellular pH [67, 68, 69]. We used the dual-emission ratiometric pH-sensitive probe BCECF-AM, which emits fluorescence based on pHi. The result of acidification was shown by a decrease in the fluorescence ratio between BCECF-AM green (FITC-FL1) and red fluorescence (PE-FL2) (FL1/FL2). […]

HCT116 cells = experiment: Sulforhodamine B (SRB) cell viability assay, HCT116; type: cell-based; settings: Homo sapiens, HCT-116, CRC cell line, 48 h, read-out: IC50 (μM) ± SD, HCT116
Protocol: (§1) The cells were allowed to adhere overnight, from 12 h to 18 h, and then treated with increasing concentrations of each compound, C9, A36, and A42 (0.125 μM, 0.25 μM, 0.5 μM, 1 μM, 2.5 μM, and 5 μM), in their respective culture mediums for 48 h. In addition to a negative control that consisted only of cells and growth medium, a negative control containing the highest concentration of the solvent in which the compound was dissolved (DMSO 0.1%) was also used. The SRB assay was performed according to Marques et al.. The IC50 values were obtained using GraphPad Prism version 8.2.1 through the application of a sigmoidal dose–response nonlinear regression, after logarithmic transformation. The selectivity index was determined by dividing the IC50 value of the non-neoplastic BJ-5ta cell line by the IC50 value of the cancer cell lines (IC50 BJ-5ta/IC50 cancer cell line); furthermore, for the CRC model, a second selectivity index was also determined using the non-neoplastic NCM460 cell line (IC50 NCM460/IC50 CRC cell line). According to the results of the selectivity index, the cell line with the highest selectivity value for each of the models, CRC and breast, was selected for subsequent characterization.
(§2) Three CRC-derived cell lines, SW480 (KRAS^G12V), HCT116 (KRAS^G13D), and RKO (BRAF^V600E), harboring somatic mutations on KRAS or BRAF, and two breast-cancer-derived cell lines, MDA-MB-231 (basal like) and MCF7 (luminal A subtype), together with two non-neoplastic cell lines, NCM460 (normal colon mucosal epithelial cell line) and BJ-5ta (normal foreskin fibroblast cell line), were used to study the activity and selectivity of the three new benzo[a]phenoxazine compounds, C9, A36, and A42. All cell lines were treated with a range of drug concentrations (0.125 μM, 0.25 μM, 0.5 μM, 1 μM, 2.5 μM, and 5 μM) for 48 h, and the effect on cell viability was assessed using a sulforhodamine B assay (SRB) (Figure 2). […] In addition, the selectivity index was determined using the BJ-5ta cell line as a reference, as well as the NCM460 cell line for the CRC model (Table 1).

BJ-5ta cells = experiment: Sulforhodamine B (SRB) cell viability assay, BJ-5ta; type: cell-based; settings: Homo sapiens, non-neoplastic cell line, 48 h, read-out: IC50 (μM) ± SD, BJ-5ta
Protocol: as §1, §2

S. cerevisiae = settings: yeast S. cerevisiae, microdilution; cited from earlier work
MDA-MB-231 cells = experiment: Sulforhodamine B (SRB) cell viability assay, MDA-MB-231; type: cell-based, human
Protocol: as §1
Three CRC-derived cell lines, SW480 (KRAS^G12V), HCT116 (KRAS^G13D), and RKO (BRAF^V600E), harboring somatic mutations on KRAS or BRAF, and two breast-cancer-derived cell lines, MDA-MB-231 (basal like) and MCF7 (luminal A subtype), together with two non-neoplastic cell lines, NCM460 (normal colon mucosal epithelial cell line) and BJ-5ta (normal foreskin fibroblast cell line), were used to study the activity and selectivity of the three new benzo[a]phenoxazine compounds, C9, A36, and A42. All cell lines were treated with a range of drug concentrations (0.125 μM, 0.25 μM, 0.5 μM, 1 μM, 2.5 μM, and 5 μM) for 48 h, and the effect on cell viability was assessed using a sulforhodamine B assay (SRB) (Figure 2). The results were used to determine the IC50 value of each compound for all the cell lines (Table 1). In addition, the selectivity index was determined using the BJ-5ta cell line as a reference, as well as the NCM460 cell line for the CRC model (Table 1).

MCF7 cells [2] = experiment: ROS levels (DHE, flow cytometry), MCF7; type: cell-based, human; settings: MCF7, 2 × IC50 and 4 × IC50, 48 h
Protocol: The RKO and MCF7 ROS levels were evaluated through flow cytometry using the dihydroethidium (DHE) probe. RKO and MCF7 cells were seeded in 12-well plates at a density of 1 × 10^5 cells/mL. After 24 h, the cells were treated with the compounds C9, A36, and A42 at 2 × IC50 and 4 × IC50 concentrations or 0.1% DMSO (vehicle). As a control, untreated cells were used. The cells were collected after 48 h of treatment, washed with PBS 1×, and stained for 30 min at 37 °C in the dark using 0.5 μM DHE. The DHE mean fluorescence intensity was analyzed by flow cytometry using the PE-A channel.
Since ROS generation is reported to precede LMP and cell death, and in view of reports showing that some compounds of this family increase intracellular ROS levels under certain circumstances, we also investigated whether C9, A36, and A42 had any effects in this regard.

MCF7 cells [3] = experiment: Sulforhodamine B (SRB) cell viability assay, MCF7; type: cell-based; settings: Homo sapiens, breast cancer cell line, 48 h, read-out: IC50 (μM) ± SD, MCF7
Protocol: as §1, §2

NCM460 cells = experiment: Sulforhodamine B (SRB) cell viability assay, NCM460; type: cell-based; settings: Homo sapiens, non-neoplastic cell line, 48 h, read-out: IC50 (μM) ± SD, NCM460
Protocol: as §1, §2

With `CCCNc1cc2oc3cc(=NCC)c(C)cc-3nc2c2ccccc12` [C9] the “Intracellular acidification (BCECF-AM FL1/FL2 ratio)” value (MCF7 cells [1]) was “most pronounced effect”, the IC50 (HCT116 cells) was 1.64 ± 0.09 µM and the IC50 (BJ-5ta cells) was 2.55 ± 0.15 µM. The “MIC (minimum inhibitory concentration)” value (S. cerevisiae) was 6.25 µM (≈ 2.16 µg/mL), the IC50 (MDA-MB-231 cells; Homo sapiens, MDA-MB-231, breast cancer cell line, 48 h, SRB, read-out: IC50 (μM) ± SD, MDA-MB-231) was 1.19 ± 0.05 µM and the “Selectivity Index Cell Line IC50/BJ-5ta IC50” value (MDA-MB-231 cells; MDA-MB-231 versus BJ-5ta) was 2.14. The “ROS levels (fluorescence mean of DHE)” value (MCF7 cells [2]) was “higher intensity”, the IC50 (MCF7 cells [3]) was 0.84 ± 0.06 µM and the IC50 (NCM460 cells) was 1.12 ± 0.13 µM.
